According to patent US20250152719A1, “FUSED IMIDE DERIVATIVE” (Chia Tai Tianqing Pharmaceutical Group Co., Ltd., priority 2021, published 2025):
Where two headings read alike, the source gives them in different places. Values belong to the compound of their own block, whether it stands above or below them.

How the values were obtained:
BTK = BTK (Homo sapiens (Human), UniProt Q06187); assay: BTK degradation in OCI-LY10 cells (Total-BTK HTRF kit); format: cell-based; conditions: 24 (or 6) h incubation; for DC50 / BTK degradation in OCI-LY10 cells Dmax: OCI-LY10 cells; for DC50: DC50 = concentration when degradation rate reaches 50%, read-out: OCI-LY10 cell BTK degradation DC50; for Dmax: OCI-Ly10, OCI-LY10 cells; for Dmax / BTK degradation in OCI-LY10 cells Dmax: maximum degradation rate
BTK, sequence (Q06187 whole entry): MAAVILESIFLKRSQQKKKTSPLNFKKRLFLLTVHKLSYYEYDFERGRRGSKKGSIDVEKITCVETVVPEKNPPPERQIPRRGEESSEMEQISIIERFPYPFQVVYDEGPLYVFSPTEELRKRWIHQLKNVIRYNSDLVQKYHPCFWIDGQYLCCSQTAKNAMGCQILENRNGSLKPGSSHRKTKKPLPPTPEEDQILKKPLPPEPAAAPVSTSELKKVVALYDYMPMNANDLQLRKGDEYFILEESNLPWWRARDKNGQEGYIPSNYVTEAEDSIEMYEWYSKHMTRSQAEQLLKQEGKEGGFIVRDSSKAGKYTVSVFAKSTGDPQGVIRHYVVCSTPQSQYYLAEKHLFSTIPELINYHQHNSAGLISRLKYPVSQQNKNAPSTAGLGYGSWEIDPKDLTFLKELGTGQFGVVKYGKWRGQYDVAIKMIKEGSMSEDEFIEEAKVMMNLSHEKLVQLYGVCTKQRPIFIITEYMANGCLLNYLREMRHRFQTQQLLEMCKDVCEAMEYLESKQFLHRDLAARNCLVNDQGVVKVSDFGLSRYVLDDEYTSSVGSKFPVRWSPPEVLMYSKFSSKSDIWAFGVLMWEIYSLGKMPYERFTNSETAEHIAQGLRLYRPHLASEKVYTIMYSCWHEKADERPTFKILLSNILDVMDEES
Protocol: The detection was carried out using the Total-BTK Kits (cisbio, 63ADK064PEH), and 4× Supplemented Lysis buffer was prepared using the Blocking reagent stock solution (100×) and Lysis buffer stock solution (4×). Premixed antibody solutions were prepared using the Detection buffer, Total-BTK d2 antibody, and Total-BTK Eu Cryptate antibody.
OCI-LY10 cells in a good growth state were collected and added to a centrifuge tube, adjusted to a cell density of 4.17×10^6 cells/mL, and seeded in a 384-well plate (12 μL/well). The cells were incubated overnight in a cell incubator. Compounds were added using a nanoliter pipettor such that the final concentrations of the compounds were 100 nM-0.098 nM; the addition was performed in duplicate, and meanwhile, a control was set. After another 24 (or 6) h of incubation in the cell incubator, the 4× Supplemented Lysis buffer was added at 4 μL/well to lyse the cells. After the cells were shaken for 40 min at room temperature, the Premixed antibody solutions were added at 4 μL/well, and the cells were left to stand overnight at room temperature. Fluorescence values of the cells were detected at 665 nm/620 nm using an Envision microplate reader, the four-parameter analysis was performed, the dose-response curves were fit, and DC50 (the concentration of the drug when the degradation rate reaches 50%) and Dmax (the maximum degradation rate) were calculated.

OCI-LY10 cells = assay: Inhibitory activity on OCI-LY10 cell proliferation (CCK-8); format: cell-based
Protocol: (§1) OCI-LY10 cells in a good growth state were collected and added to a centrifuge tube, adjusted to a cell density of 1×10^5 cells/mL, and seeded in a 96-well plate (100 μL/well). The cells were incubated overnight in a cell incubator. Compounds were added using a nanoliter pipettor such that the final concentrations of the compounds were 5000 nM-0.31 nM; the addition was performed in duplicate, and meanwhile, a control was set. After another 72 h of incubation in the cell incubator, 10 μL of CCK-8 (CK04, PP799) was added. After 2.5 h of incubation in the cell incubator, absorbance values were detected at 450 nm using an Envision microplate reader, the four-parameter analysis was performed, the dose-response curves were fit, and IC50 was calculated.

[1] = In vitro liver microsomal stability, mouse; conditions: 0.5 mg/mL microsomes, NADPH, 37° C., 1 h
Protocol: (§2) Liver microsome incubation samples were prepared by mixing a PBS buffer (pH 7.4), a liver microsome solution (0.5 mg/mL), a test compound, and an NADPH+MgCl2 solution and incubated at 37° C. and 300 rpm for 1 h. Zero-hour samples were prepared by mixing a PBS buffer (pH 7.4), a liver microsome solution (0.5 mg/mL), and a test compound. An acetonitrile solution containing an internal standard was added to the samples, and supernatants were prepared by protein precipitation, diluted, and then assayed by LC/MS/MS.

TMD8-BTK(C481S) cells = assay: Inhibitory activity on TMD8-BTK(C481S) cell proliferation (CCK-8); format: cell-based; conditions: 72 h incubation
Protocol: as §1, with “TMD8-BTK(C481S)” for “OCI-LY10”, “8×10^4” for “1×10^5”, “4” for “2.5”

[2] = tested on: OCI-LY10-BTK(C481S) cells; assay: Inhibitory activity on OCI-LY10-BTK(C481S) cell proliferation (CCK-8); format: cell-based; conditions: 72 h incubation, IC50 per method, unit inferred
Protocol: OCI-LY10(C481S) cells in the logarithmic growth phase were collected and added to a centrifuge tube, adjusted to a cell density of 5×10^4 cells/mL, and seeded in a 96-well plate (100 μL/well). Meanwhile, compounds were added using a nanoliter pipettor such that the final concentrations of the compounds were 5000 nM-0.31 nM; the addition was performed in duplicate, and meanwhile, a control was set. After another 72 h of incubation in the cell incubator, the detection reagent CCK-8 (manufacturer: Dojindo Laboratories, Beijing; 10 μL/well) was added. After 3 h of incubation in the cell incubator, absorbance values were detected at 450 nm using a PerkinElmer Envision microplate reader, the four-parameter analysis was performed, the dose-response curves were fit, and IC50 was calculated.

[3] = In vitro liver microsomal stability, human; format: in vitro ADME; conditions: 0.5 mg/mL microsomes, NADPH, 37° C., 1 h
Protocol: as §2

TMD-8 xenograft tumors = assay: In vivo drug efficacy, TMD-8 mouse subcutaneous xenograft tumors; set-up: species or system NOD-SCID mice; conditions: 30 mg/kg, qd, i.g.; for TGI d 17: 16 days, tumor weight on day 17; for TV on d 0 Mean ± SD: day 0 (baseline at grouping); for TV on d 12 Mean ± SD: day 12; for TV on d 15 Mean ± SD: day 15
Protocol: TMD-8 mouse subcutaneous xenograft tumors: TMD-8 (WT) cells at a concentration of 1×10^8/mL were inoculated under aseptic conditions into the right side armpit of NOD-SCID mice at 0.1 mL/mouse. After subcutaneous grafting, the animals were divided into groups with 6 animals in each group when the tumor volume reached about 188 mm^3 (or 200 mm^3):
model group: vehicle, 6 mice; compound administration groups: 30 mg/kg, qd, i.g., 6 mice.
The vehicle or the test compound was intragastrically given at a volume of 4 mL/kg, once daily for 16 consecutive days. The tumor volume was measured 2-3 times a week, and meanwhile, the mice were weighed and the data were recorded; the general behaviors of the animals were observed every day. After all dosing was complete, the animals were sacrificed on day 17, and the tumors were removed and weighed.
The tumor volume and the tumor growth inhibition were calculated using the following formulae:
Tumor volume (TV)=(Length×Width^2)/2.
Tumor growth inhibition (TGI)=(1−tumor weight of treatment group/tumor weight of model group)×100%.

Mouse pharmacokinetics = format: in vivo, ICR mice
Protocol: ICR mice weighing 18-22 g were randomized into groups of 9 after 3-5 days of acclimatization and then intragastrically given the test compound solution at a dose of 10 mg/kg. Plasma samples to be tested were prepared by taking blood from the orbit at time points of 15 min, 30 min, 1 h, 2 h, 3 h, 4 h, 6 h, 8 h, 10 h, and 24 h. 20 μL of each plasma sample to be detected and a standard curve sample were taken, and an acetonitrile solution containing an internal standard was added. […] Pharmacokinetic parameters were fitted using a non-compartmental model (see Table 5).

[4] = Homo sapiens, OCI-Ly10, 72 h incubation
[5] = ICR, mouse, plasma, iv, 1 mg/kg, Mouse i.v. 1 mpk

Compound: CN1CCN([C@@H]2CCCN(c3cnc(C(N)=O)c(Nc4ccc(C5CCN(C6CN(c7cc8onc(C9CCC(=O)NC9=O)c8c8ccccc78)C6)CC5)cc4)n3)C2)C1=O (stereo partly drawn) [Compound 93]
Dmax (BTK): > 90%
IC50 ([2]; 72 h): 0.7 nM
Human liver microsome Residuals at 60 min [3]: 53.0%
Mouse liver microsome Residuals at 60 min [1]: 72.0%

Compound: NC(=O)c1ncc(N2CCCCC2)nc1Nc1ccc(C2CCN(C[C@@H]3CC[C@@H](n4ccc5c6c(C7CCC(=O)NC7=O)noc6ccc54)C3)CC2)cc1 (stereo partly drawn) [Compound 104]
IC50 (TMD8-BTK(C481S) cells; 72 h): 16 nM
TGI d 17 (TMD-8 xenograft tumors): 96.0%
TV on d 0 Mean ± SD (TMD-8 xenograft tumors): 226 ± 27 mm^3
TV on d 12 Mean ± SD (TMD-8 xenograft tumors): 286 ± 77 mm^3
TV on d 15 Mean ± SD (TMD-8 xenograft tumors): 269 ± 61 mm^3

Compound: NC(=O)c1ncc(N2CCCCC2)nc1Nc1ccc(N2CCC(CN3CCc4ccc5c(C6CCC(=O)NC6=O)noc5c4CC3)CC2)cc1 (stereo not drawn) [Compound 72]
Dmax (BTK): > 90%
IC50 (TMD8-BTK(C481S) cells; 72 h): 2.6 nM
Human liver microsome Residuals at 60 min [3]: 94.0%
clearance (Mouse pharmacokinetics; [5]): 12 mL/min/kg
half-life (Mouse pharmacokinetics; [5]): 2.3 h
AUC (Mouse pharmacokinetics; ICR, mouse, plasma, iv, 1 mg/kg, Mouse i.v. 1 mpk, read-out: AUC): 1290 ng·h/mL
half-life (Mouse pharmacokinetics; ICR, mouse, plasma, po, 10 mg/kg, Mouse i.g. 10 mpk): 4.6 h
AUC (Mouse pharmacokinetics; ICR, mouse, plasma, po, 10 mg/kg, Mouse i.g. 10 mpk, read-out: AUC): 8300 ng·h/mL
Cmax (Mouse pharmacokinetics; ICR, mouse, plasma, po, 10 mg/kg, Mouse i.g. 10 mpk, read-out: Cmax): 634 ng/mL
F (Mouse pharmacokinetics; Mouse i.g. 10 mpk): 64.50%
TGI d 17 (TMD-8 xenograft tumors): 97.9%
TV on d 0 Mean ± SD (TMD-8 xenograft tumors): 226 ± 21 mm^3
TV on d 12 Mean ± SD (TMD-8 xenograft tumors): 246 ± 52 mm^3
TV on d 15 Mean ± SD (TMD-8 xenograft tumors): 122 ± 78 mm^3

Compound: NC(=O)c1ncc(N2CCCCC2)nc1Nc1ccc(C2CCN(C[C@@H]3CC[C@H](n4ccc5c6c(C7CCC(=O)NC7=O)noc6ccc54)C3)CC2)cc1 (stereo partly drawn) [Compound 105]
IC50 (TMD8-BTK(C481S) cells; 72 h): 6.9 nM
TGI d 17 (TMD-8 xenograft tumors): 95.4%
TV on d 0 Mean ± SD (TMD-8 xenograft tumors): 226 ± 28 mm^3
TV on d 12 Mean ± SD (TMD-8 xenograft tumors): 253 ± 36 mm^3
TV on d 15 Mean ± SD (TMD-8 xenograft tumors): 229 ± 49 mm^3

Compound: NC(=O)c1ncc(N2CCCCC2)nc1Nc1ccc(C2CCN(CC3CN(c4ccc5c(C6CCC(=O)NC6=O)noc5c4)C3)CC2)cc1 (stereo not drawn) [Compound 94]
Dmax (BTK): > 90%
IC50 (OCI-LY10 cells; [4]): < 0.31 nM
IC50 ([2]; 72 h): 0.53 nM
Human liver microsome Residuals at 60 min [3]: 81.0%
Mouse liver microsome Residuals at 60 min [1]: 75.0%

Compound: CN1CCN([C@@H]2CCCN(c3cnc(C(N)=O)c(Nc4ccc(N5CCC(CN6CCc7c(ccc8c(C9CCC(=O)NC9=O)noc78)C6)CC5)cc4)n3)C2)C1=O (stereo partly drawn) [Compound 28]
Dmax (BTK): > 90%
IC50 (OCI-LY10 cells; [4]): < 0.31 nM
IC50 ([2]; 72 h): 0.29 nM

The next lines start with results.

DC50 (BTK): < 0.098 nM
Dmax (BTK): 99%
IC50 (OCI-LY10 cells; [4]): < 0.31 nM
Mouse liver microsome Residuals at 60 min [1]: 42.7%
Compound: CN1CCN([C@@H]2CCCN(c3cnc(C(N)=O)c(Nc4ccc(C5CCN(C[C@@H]6CCC(c7ccc8c(C9CCC(=O)NC9=O)noc8c7)C6)CC5)cc4)n3)C2)C1=O (stereo partly drawn) [Compound 7]

DC50 (BTK): < 0.098 nM
Dmax (BTK): 99%
IC50 (OCI-LY10 cells; [4]): < 0.31 nM
Mouse liver microsome Residuals at 60 min [1]: 54.7%
Compound: CN1CCN([C@@H]2CCCN(c3cnc(C(N)=O)c(Nc4ccc(C5CCN(CC6CCN(c7ccc8c(C9CCC(=O)NC9=O)noc8c7)CC6)CC5)cc4)n3)C2)C1=O (stereo partly drawn) [Compound 8]
IC50 (TMD8-BTK(C481S) cells; 72 h): 6.9 nM

DC50 (BTK): < 0.098 nM
BTK degradation in OCI-LY10 cells Dmax (BTK): 100%
IC50 (OCI-LY10 cells; 72 h incubation): < 0.31 nM
IC50 [2]: < 0.31 nM
Mouse liver microsome Residuals at 60 min [1]: 62.41%
Compound: CN1CCN([C@@H]2CCCN(c3cnc(C(N)=O)c(Nc4ccc(C5CCN(C[C@@H]6CCC(c7cc8[nH]ccc8c8c(C9CCC(=O)NC9=O)noc78)C6)CC5)cc4)n3)C2)C1=O (stereo partly drawn) [Compound 14]

BTK degradation in OCI-LY10 cells Dmax (BTK): >90%
IC50 (OCI-LY10 cells; 72 h incubation): < 0.31 nM
AUC (Mouse pharmacokinetics; Mouse i.g. 10 mpk): 18944 ng·h/mL
Cmax (Mouse pharmacokinetics; Mouse i.g. 10 mpk): 2550 ng/mL
F (Mouse pharmacokinetics; Mouse i.g. 10 mpk): 21.0%
t1/2 (Mouse pharmacokinetics; Mouse i.g. 10 mpk): 3 h
AUC (Mouse pharmacokinetics; Mouse i.v. 1 mpk): 8882 ng·h/mL
Cl (Mouse pharmacokinetics; Mouse i.v. 1 mpk): 1.83 mL/min/kg
t1/2 (Mouse pharmacokinetics; Mouse i.v. 1 mpk): 2.7 h
Mouse liver microsome Residuals at 60 min [1]: 54.63%
Compound: CN1CCN([C@@H]2CCCN(c3cnc(C(N)=O)c(Nc4ccc(C5CCN(CC6Cc7ccc8c(C9CCC(=O)NC9=O)noc8c7C6)CC5)cc4)n3)C2)C1=O (stereo partly drawn) [Compound 90]
IC50 (TMD8-BTK(C481S) cells): 1.2 nM

DC50 (BTK): < 0.098 nM
BTK degradation in OCI-LY10 cells Dmax (BTK): 100%
IC50 (OCI-LY10 cells; 72 h incubation): < 0.31 nM
IC50 [2]: < 0.31 nM
Mouse liver microsome Residuals at 60 min [1]: 56.41%
Compound: CN1CCN([C@@H]2CCCN(c3cnc(C(N)=O)c(Nc4ccc(C5CCN(C[C@@H]6CCC(c7cc8onc(C9CCC(=O)NC9=O)c8c8cc[nH]c78)C6)CC5)cc4)n3)C2)C1=O (stereo partly drawn) [Compound 13]
